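48-hour exposure; five concentrations; linearly interpolated endpoints. Here, GI50 denotes the concentration required for 50% inhibition of growth. TGI marks complete inhibition of growth.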 Where a SMILES comes first, the peptide text is derived from it. The star is where a group is joined. Boc = CC(C)(C)OC(=O)*; OBn = c1ccc(CO*)cc1
How the values were obtained:
Assay in all cases: growth of human tumour cells (NCI), 48 h
RXF 393 renal = test system: RXF 393 renal
OVCAR-5 ovarian = test system: OVCAR-5 ovarian
CAKI-1 renal = test system: CAKI-1 renal
PC-3 prostate = test system: PC-3 prostate
RPMI-8226 leukemia = test system: RPMI-8226 leukemia
MDA-MB-231 breast = test system: MDA-MB-231 breast
MCF7 breast = test system: MCF7 breast
SF-295 CNS = test system: SF-295 CNS
HL-60(TB) leukemia = test system: HL-60(TB) leukemia
786-0 renal = test system: 786-0 renal

## O=S(=O)(/N=C(\NO)Nc1ccc(Cl)cc1)C1CC=C(c2ccon2)S1 (stereo unspecified)
RXF 393 renal
  TGI: 87.3 µM
OVCAR-5 ovarian
  TGI: > 100 µM
CAKI-1 renal
  TGI: > 100 µM
PC-3 prostate
  TGI: > 100 µM
RPMI-8226 leukemia
  TGI: > 50.3 µM
MDA-MB-231 breast
  TGI: > 100 µM
MCF7 breast
  TGI: > 100 µM
SF-295 CNS
  TGI: > 100 µM
HL-60(TB) leukemia
  TGI: 35.6 µM
786-0 renal
  TGI: > 100 µM

## CC(=O)OC1[C@H](n2ccnc2)C[C@H]2[C@@H]3CC=C4CC(N5CCCC5)CC[C@]4(C)[C@H]3CC[C@]12C (stereo partly specified)
RXF 393 renal
  TGI: 43.7 µM
OVCAR-5 ovarian
  TGI: > 100 µM
CAKI-1 renal
  TGI: > 100 µM
PC-3 prostate
  TGI: > 100 µM
RPMI-8226 leukemia
  TGI: > 100 µM
MDA-MB-231 breast
  TGI: > 100 µM
MCF7 breast
  TGI: > 100 µM
SF-295 CNS
  TGI: 41 µM
HL-60(TB) leukemia
  TGI: 81.3 µM
786-0 renal
  TGI: > 100 µM

## Cc1nc2cccc([N+](=O)[O-])c2n1CCCN(C)C
RXF 393 renal
  TGI: > 100 µM
OVCAR-5 ovarian
  TGI: > 100 µM
CAKI-1 renal
  TGI: > 100 µM
PC-3 prostate
  TGI: > 100 µM
RPMI-8226 leukemia
  TGI: > 100 µM
MDA-MB-231 breast
  TGI: > 100 µM
MCF7 breast
  TGI: > 100 µM
SF-295 CNS
  TGI: > 100 µM
HL-60(TB) leukemia
  TGI: > 100 µM
786-0 renal
  TGI: > 100 µM

## Oc1ccccc1-c1nn2c(CCCCCCCCc3nnc4sc(-c5ccccc5O)nn34)nnc2s1
RXF 393 renal
  TGI: > 64.1 µM
OVCAR-5 ovarian
  TGI: > 76.6 µM
CAKI-1 renal
  TGI: > 100 µM
PC-3 prostate
  TGI: > 100 µM
RPMI-8226 leukemia
  TGI: > 100 µM
MDA-MB-231 breast
  TGI: > 100 µM
MCF7 breast
  TGI: > 100 µM
SF-295 CNS
  TGI: > 100 µM
HL-60(TB) leukemia
  TGI: 77.9 µM
786-0 renal
  TGI: > 100 µM

## Cc1cc(C)c2c(=O)cc(-c3ccc4ccccc4c3)[nH]c2n1
RXF 393 renal
  TGI: > 100 µM
OVCAR-5 ovarian
  TGI: > 100 µM
CAKI-1 renal
  TGI: > 100 µM
PC-3 prostate
  TGI: > 100 µM
RPMI-8226 leukemia
  TGI: 27.8 µM
MDA-MB-231 breast
  TGI: > 100 µM
MCF7 breast
  TGI: > 100 µM
SF-295 CNS
  TGI: > 93 µM
HL-60(TB) leukemia
  TGI: 16.4 µM
786-0 renal
  TGI: > 100 µM

## COC(=O)C1=COc2c(n(C)c3ccccc23)-c2ccccc21
RXF 393 renal
  TGI: > 100 µM
OVCAR-5 ovarian
  TGI: > 100 µM
CAKI-1 renal
  TGI: > 100 µM
PC-3 prostate
  TGI: > 100 µM
RPMI-8226 leukemia
  TGI: > 100 µM
MDA-MB-231 breast
  TGI: > 100 µM
MCF7 breast
  TGI: > 100 µM
SF-295 CNS
  TGI: > 100 µM
HL-60(TB) leukemia
  TGI: > 100 µM
786-0 renal
  TGI: > 100 µM

## CC(C)CC(NC(=O)C(Cc1ccccc1)NC(=O)C(Cc1ccccc1)NC(=O)OC(C)(C)C)C(=O)OCc1ccccc1 (stereo not drawn) (Boc-Phe-Phe-Leu-OBn; configuration not given here)
RXF 393 renal
  TGI: > 100 µM
OVCAR-5 ovarian
  TGI: > 100 µM
CAKI-1 renal
  TGI: > 100 µM
PC-3 prostate
  TGI: > 100 µM
RPMI-8226 leukemia
  TGI: > 100 µM
MDA-MB-231 breast
  TGI: > 100 µM
MCF7 breast
  TGI: > 100 µM
SF-295 CNS
  TGI: > 100 µM
HL-60(TB) leukemia
  TGI: > 100 µM
786-0 renal
  TGI: > 100 µM

## Cc1nnc([C@@]2(C)CC[C@H]3[C@@H](CCC4=CC(=O)CC[C@@]43C)[C@@H]2CC#N)o1
RXF 393 renal
  TGI: > 100 µM
OVCAR-5 ovarian
  TGI: > 100 µM
CAKI-1 renal
  TGI: > 100 µM
PC-3 prostate
  TGI: > 100 µM
RPMI-8226 leukemia
  TGI: > 100 µM
MDA-MB-231 breast
  TGI: > 100 µM
MCF7 breast
  TGI: > 100 µM
SF-295 CNS
  TGI: > 100 µM
HL-60(TB) leukemia
  TGI: > 100 µM
786-0 renal
  TGI: > 100 µM

## COc1ccc(/C=C(/c2ccccc2)c2c(C)cc(C)c(/C(=C\c3ccc(OC)cc3)c3ccccc3)c2N=Nc2cc(C)cc(C)c2)cc1
RXF 393 renal
  TGI: > 95.9 µM
OVCAR-5 ovarian
  TGI: > 100 µM
CAKI-1 renal
  TGI: > 100 µM
PC-3 prostate
  TGI: > 100 µM
RPMI-8226 leukemia
  TGI: > 100 µM
MDA-MB-231 breast
  TGI: 16 µM
MCF7 breast
  TGI: > 100 µM
SF-295 CNS
  TGI: > 100 µM
HL-60(TB) leukemia
  TGI: > 42.4 µM
786-0 renal
  TGI: > 100 µM

## CC(=O)C1=C(C)N(c2ccccc2)C2(O)C=CC(=O)C3=C(O)c4ccccc4C(=O)C312 (stereo unspecified)
RXF 393 renal
  TGI: 36.6 µM
OVCAR-5 ovarian
  TGI: 39.3 µM
CAKI-1 renal
  TGI: 33.3 µM
PC-3 prostate
  TGI: 41.5 µM
RPMI-8226 leukemia
  TGI: > 100 µM
MDA-MB-231 breast
  TGI: 51 µM
MCF7 breast
  TGI: > 100 µM
SF-295 CNS
  TGI: 38.5 µM
HL-60(TB) leukemia
  TGI: 74.1 µM
786-0 renal
  TGI: > 100 µM

## C[N+](C)(C)C(C1=CCCC1=O)c1ccccc1 (stereo unspecified)
RXF 393 renal
  TGI: 41.8 µM
OVCAR-5 ovarian
  TGI: > 100 µM
CAKI-1 renal
  TGI: 63.9 µM
PC-3 prostate
  TGI: > 100 µM
RPMI-8226 leukemia
  TGI: 44.2 µM
MDA-MB-231 breast
  TGI: 75.5 µM
MCF7 breast
  TGI: 56.7 µM
SF-295 CNS
  TGI: > 100 µM
HL-60(TB) leukemia
  TGI: 66.5 µM
786-0 renal
  TGI: 39.9 µM

## CC[C@H]1C=CCC[C@@]2(C[C@@H]3CC[C@@H]4[C@H](C(=O)OCCCCCCCCCCCCCCCC(=O)N(CCCNC(C)=O)C[C@H](CCNC(C)=O)OC(C)=O)[C@]5(CCC[C@@H](C)O5)NC(=[N+]34)N2)O1
RXF 393 renal
  TGI: 1.02 µM
OVCAR-5 ovarian
  TGI: 1.8 µM
CAKI-1 renal
  TGI: 1.86 µM
PC-3 prostate
  TGI: 1.18 µM
RPMI-8226 leukemia
  GI50: 0.0406 µM
  TGI: 0.242 µM
MDA-MB-231 breast
  TGI: 1.93 µM
MCF7 breast
  TGI: 1.37 µM
SF-295 CNS
  TGI: 1.46 µM
HL-60(TB) leukemia
  TGI: 1.34 µM
786-0 renal
  TGI: 0.426 µM

## CC(=O)OCCOCCN1CCN(c2c(O)c3c(c(O)c2Cl)C(=O)C=CC3=O)CC1
RXF 393 renal
  TGI: 1.93 µM
OVCAR-5 ovarian
  TGI: 2.97 µM
CAKI-1 renal
  TGI: 0.878 µM
PC-3 prostate
  TGI: 3.28 µM
RPMI-8226 leukemia
  TGI: 1.42 µM
MDA-MB-231 breast
  TGI: 1.09 µM
MCF7 breast
  TGI: 0.976 µM
SF-295 CNS
  TGI: 3.72 µM
HL-60(TB) leukemia
  TGI: 0.238 µM
786-0 renal
  TGI: 0.913 µM

## O=c1c2c3c(sc2nc2n1N=C(c1ccc([N+](=O)[O-])cc1)CS2)CCCC3
RXF 393 renal
  TGI: > 100 µM
OVCAR-5 ovarian
  TGI: > 100 µM
CAKI-1 renal
  TGI: > 100 µM
PC-3 prostate
  TGI: > 100 µM
RPMI-8226 leukemia
  TGI: > 100 µM
MDA-MB-231 breast
  TGI: > 100 µM
MCF7 breast
  TGI: > 100 µM
SF-295 CNS
  TGI: > 100 µM
HL-60(TB) leukemia
  TGI: > 100 µM
786-0 renal
  TGI: > 100 µM

## CC(=O)OC1OC(c2ccoc2)C[C@@]12C1CCC3O[C@]3(C)[C@]1(C)C[C@H](OC(C)=O)[C@H]2C (stereo partly specified)
RXF 393 renal
  TGI: > 75 µM
OVCAR-5 ovarian
  TGI: > 75 µM
CAKI-1 renal
  TGI: > 75 µM
PC-3 prostate
  TGI: > 75 µM
RPMI-8226 leukemia
  TGI: > 75 µM
MDA-MB-231 breast
  TGI: > 75 µM
MCF7 breast
  TGI: > 75 µM
SF-295 CNS
  TGI: > 75 µM
HL-60(TB) leukemia
  TGI: > 75 µM
786-0 renal
  TGI: > 75 µM
